Measured values published in US20090170886A1 (Pfizer Inc, priority 2005, published 2009).
Positions count from the first letter of the chain named. Read-outs that look alike come from different tables or passages of the source.

Experiments:
spinal BMD = conditions: after 7 years of treatment; cited from earlier work
[1] = molecular target: T1, hAR (human androgen receptor, baculovirus/Sf9 generated extracts) (Homo sapiens, UniProt P10275); test: AR Binding Assay (competitive binding with 3H-DHT tracer); conditions: 1 nM 3H-DHT, one hour at 4° C., mean of multiple tests
T1 construct: made in house; host or cells: baculovirus/Sf9 insect cells (crude extract)
T1 sequence (P10275 1-920): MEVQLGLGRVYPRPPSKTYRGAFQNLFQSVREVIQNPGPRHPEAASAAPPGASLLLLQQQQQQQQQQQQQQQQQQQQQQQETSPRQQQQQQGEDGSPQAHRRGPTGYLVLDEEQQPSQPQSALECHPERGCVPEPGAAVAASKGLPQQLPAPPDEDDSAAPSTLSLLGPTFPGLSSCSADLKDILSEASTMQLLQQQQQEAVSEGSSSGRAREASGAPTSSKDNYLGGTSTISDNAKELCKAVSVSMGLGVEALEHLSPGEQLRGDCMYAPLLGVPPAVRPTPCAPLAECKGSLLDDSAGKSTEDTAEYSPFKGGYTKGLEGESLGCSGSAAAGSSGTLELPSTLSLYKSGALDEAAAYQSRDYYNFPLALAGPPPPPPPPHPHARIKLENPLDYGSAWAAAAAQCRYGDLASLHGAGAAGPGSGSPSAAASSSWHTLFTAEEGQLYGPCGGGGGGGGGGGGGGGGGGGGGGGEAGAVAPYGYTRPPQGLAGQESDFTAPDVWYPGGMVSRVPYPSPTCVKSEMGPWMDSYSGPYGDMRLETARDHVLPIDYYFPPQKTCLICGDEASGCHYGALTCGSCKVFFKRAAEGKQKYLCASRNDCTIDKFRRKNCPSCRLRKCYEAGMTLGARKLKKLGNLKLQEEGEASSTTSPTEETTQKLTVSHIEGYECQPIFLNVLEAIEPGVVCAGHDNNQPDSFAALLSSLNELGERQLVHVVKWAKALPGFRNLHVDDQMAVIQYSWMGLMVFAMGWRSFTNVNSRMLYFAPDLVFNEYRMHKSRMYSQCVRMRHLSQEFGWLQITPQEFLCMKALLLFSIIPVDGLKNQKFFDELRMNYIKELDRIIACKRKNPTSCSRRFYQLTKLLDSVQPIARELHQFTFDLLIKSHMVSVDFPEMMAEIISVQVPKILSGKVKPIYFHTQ
Summary of the method: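 Compounds at decreasing concentrations were incubated with baculovirus/Sf9 hAR extract, hydroxylapatite and 1 nM ^3H-DHT for one hour at 4° C., then washed three times. The value is the compound concentration inhibiting half of maximum ^3H-DHT binding, reported as the mean of multiple tests.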

[2] = molecular target: T2, androgen receptor in MDA-MB453-MMTV clone 54-19 cells (Homo sapiens, UniProt P10275); test: AR Antagonist Cell Assay (MMTV-luciferase reporter, DHT-induced); assay type: cell-based; conditions: MDA-MB453-MMTV clone 54-19, 100 pM DHT, 17 hr; mean of multiple tests
T2 sequence (P10275 1-920 Q868H): T1 sequence (P10275 1-920) with Q868H
Summary of the method: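 MDA-MB453 cells stably carrying an ARE-containing MMTV-luciferase reporter, in phenol red-free medium with 1% charcoal-treated serum, preincubated 30 min with compound (0.32-1000 nM), then stimulated with 100 pM DHT for 17 h at 37 °C. Luminescence read; percent inhibition of DHT fold induction.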

[3] = hAR extract, read-out: AR Binding IC50

Structure (SMILES)	increase in spinal BMD (spinal BMD) [%]	IC50 ([1]; AR Binding IC50, hAR extract) [nM]	IC50 [2] [nM]	IC50 [1, 3] [nM]	melting point [°C]
NCCCC(O)(P(=O)(O)O)P(=O)(O)O [alendronate]	≤ 11				
N#Cc1ccc(OCc2cccc(O)c2)cc1Cl [Example 66, 2-Chloro-4-(3-hydroxy-benzyloxy)-benzonitrile]		11	4		
N#Cc1ccc(OC(Cc2ccccc2)c2cccnc2)cc1C(F)(F)F (stereo not drawn) [Example 91, 4-(2-Phenyl-1-pyridin-3-yl-ethoxy)-2-trifluoromethyl-benzonitrile]			342	116	
Cc1cccc(COc2ccc(C#N)cc2Cl)c1 [Example 40, 3-Chloro-4-(3-methyl-benzyloxy)-benzonitrile]				783	73 to 75
CCC(Oc1ccc(C#N)c(C(F)(F)F)c1)c1cccnc1 (stereo not drawn) [Example 90, 4-(1-Pyridin-3-yl-propoxy)-2-trifluoromethyl-benzonitrile]			142	167	
C[C@@H](Oc1ccc(C#N)c(C(F)(F)F)c1)c1ccccc1 [Example 3, (R)-4-(1-Phenyl-ethoxy)-2-trifluoromethyl-benzonitrile]		3	61		
CC(Oc1ccc(C#N)cc1Cl)c1ccccc1 (stereo not drawn) [Example 57, 3-Chloro-4-(1-phenyl-ethoxy)-benzonitrile]		240	86		
C=CCC(Oc1ccc(C#N)c(C(F)(F)F)c1)c1cccc(O)c1 (single isomer, unassigned; (+)) [Example 18, (+)4-{[1-(3-Hydroxyphenyl)but-3-enyl]oxy}-2-(trifluoromethyl)benzonitrile]		17	86		
N#Cc1ccc(OCc2cccc(O)c2)c(Cl)c1 [Example 41, 3-Chloro-4-(3-hydroxy-benzyloxy)-benzonitrile]			286	76	
N#Cc1ccc(OCc2ccccc2)cc1C(F)(F)F [Example 50, 4-Benzyloxy-2-trifluoromethyl-benzonitrile]			508	174	
N#Cc1ccc(OCC2COc3ccccc3O2)cc1Cl (stereo not drawn) [Example 69, 2-Chloro-4-(2,3-dihydro-benzo[1,4]dioxin-2-ylmethoxy)-benzonitrile]			> 1000	108	
Cc1ccc(C)c(C(C)Oc2ccc(C#N)c(Cl)c2)c1 (stereo not drawn) [Example 61, 2-Chloro-4-[1-(2,5-dimethyl-phenyl)-ethoxy]-benzonitrile]		61	> 1000		
COC(=O)c1ccc(C(C)Oc2ccc(C#N)c(C(F)(F)F)c2)cc1 (racemic) [Example 29, (±)-4-[1-(4-Cyano-3-trifluoromethyl-phenoxy)-ethyl]-benzoic Acid Methyl Ester]			132	102	
CC(Oc1ccc(C#N)c(C(F)(F)F)c1)c1cccc(C#N)c1 (single isomer, unassigned) [Example 78, 4-[1-(3-Cyano-phenyl)-ethoxy]-2-trifluoromethyl-benzonitrile]		37	47		
